Measured values reported in ChEMBL document CHEMBL2390919, “Investigation of the role of linker moieties in bifunctional tacrine hybrids” (Bioorg Med Chem, 2013).
Activity calls are given as the source filed them. The calls are words filed in the database; no cut-off is given here.

Assays:
Acetylcholinesterase [1] = target: T1, Acetylcholinesterase (Electrophorus electricus, UniProt O42275)
Description: Inhibition of electric eel AChE preincubated for 30 mins prior to horseradish peroxidase, H2O2 and DETAPAC addition measured for 20 mins under ROS condition by Muraoka and Miura method

Acetylcholinesterase [2] = target: T1, Acetylcholinesterase; remark: listed apart in the source
Description: Inhibition of electric eel AChE using acetylthiocholine as substrate preincubated for 10 mins prior to substrate addition measured every 30 seconds for 30 mins by Ellman's method

[3] = target: Acetylcholinesterase (Electrophorus electricus) (UniProt O42275); test: Non competitive inhibition of electric eel AChE using acetylthiocholine as substrate by Lineweaver-Burk plot analysis
Sequence of Acetylcholinesterase (Electrophorus electricus) (O42275 24-633 limits assumed): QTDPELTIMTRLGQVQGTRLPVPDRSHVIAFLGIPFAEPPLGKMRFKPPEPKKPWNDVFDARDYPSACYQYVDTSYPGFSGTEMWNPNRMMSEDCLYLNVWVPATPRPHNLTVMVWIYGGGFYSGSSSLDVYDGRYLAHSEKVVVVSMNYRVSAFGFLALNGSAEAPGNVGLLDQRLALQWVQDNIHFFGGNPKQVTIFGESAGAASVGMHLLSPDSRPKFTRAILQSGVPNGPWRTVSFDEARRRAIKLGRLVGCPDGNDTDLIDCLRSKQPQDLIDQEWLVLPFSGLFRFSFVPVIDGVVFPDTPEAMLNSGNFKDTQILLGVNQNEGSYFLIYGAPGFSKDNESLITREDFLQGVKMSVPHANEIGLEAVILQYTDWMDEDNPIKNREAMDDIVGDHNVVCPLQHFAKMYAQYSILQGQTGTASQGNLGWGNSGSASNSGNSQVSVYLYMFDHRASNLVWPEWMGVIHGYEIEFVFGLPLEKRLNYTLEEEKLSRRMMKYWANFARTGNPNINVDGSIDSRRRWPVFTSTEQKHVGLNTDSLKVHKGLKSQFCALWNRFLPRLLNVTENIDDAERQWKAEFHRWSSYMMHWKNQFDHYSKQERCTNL

[4] = target: Acetylcholinesterase (Electrophorus electricus) (UniProt O42275); test: Ratio of tacrine IC50 to compound IC50 for electric eel AChE
[5] = target: Acetylcholinesterase (Electrophorus electricus) (UniProt O42275); test: Ratio of tacrine IC50 to compound IC50 for electric eel AChE in presence of horseradish peroxidase and H2O2 and DETAPAC

T1 sequence (O42275 whole entry): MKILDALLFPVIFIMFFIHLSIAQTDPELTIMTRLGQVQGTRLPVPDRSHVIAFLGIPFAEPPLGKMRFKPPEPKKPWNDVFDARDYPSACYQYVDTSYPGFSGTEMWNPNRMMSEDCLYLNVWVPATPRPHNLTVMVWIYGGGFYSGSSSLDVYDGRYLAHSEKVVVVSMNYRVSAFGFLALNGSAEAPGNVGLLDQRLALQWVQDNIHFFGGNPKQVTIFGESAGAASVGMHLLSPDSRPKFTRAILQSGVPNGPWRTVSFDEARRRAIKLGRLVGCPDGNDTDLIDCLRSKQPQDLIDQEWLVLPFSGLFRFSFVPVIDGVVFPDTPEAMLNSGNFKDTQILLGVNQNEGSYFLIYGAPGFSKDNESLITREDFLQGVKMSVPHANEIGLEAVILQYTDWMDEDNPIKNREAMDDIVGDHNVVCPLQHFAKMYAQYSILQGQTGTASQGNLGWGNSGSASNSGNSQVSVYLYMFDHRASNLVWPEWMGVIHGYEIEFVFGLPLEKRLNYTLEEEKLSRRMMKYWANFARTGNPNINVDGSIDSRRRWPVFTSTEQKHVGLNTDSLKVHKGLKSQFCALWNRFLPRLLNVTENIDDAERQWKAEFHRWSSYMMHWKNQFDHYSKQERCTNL

Structure (SMILES) | IC50 (Acetylcholinesterase [1]) [nM] | IC50 (Acetylcholinesterase [2]) [nM] | inhibition [3] | Ratio IC50 [4] | Ratio IC50 [5]
Cc1cccc(Nc2ccccc2C(=O)NCCCCCC(=O)NCCCCNc2c3c(nc4cc(Cl)ccc24)CCCC3)c1C | 0.299 | 37.4 | – | – | –
Cc1cccc(Nc2ccccc2C(=O)NCCCCCCCCCCCCNc2c3c(nc4cc(Cl)ccc24)CCCC3)c1C | 16.2 | 2360 | – | – | –
OCCCCCCNc1c2c(nc3cc(Cl)ccc13)CCCC2 | 2.47 | 42.4 | Active | – | –
NCCCCCCCCNc1c2c(nc3cc(Cl)ccc13)CCCC2 | 293 | 1.14 | – | 50 | –
Cc1cccc(Nc2ccccc2C(=O)NCCCCCC(=O)NCCCCCCCNc2c3c(nc4cc(Cl)ccc24)CCCC3)c1C | 13.4 | 11.1 | – | – | –
Cc1cccc(Nc2ccccc2C(=O)NCCCCCCCCCCNc2c3c(nc4cc(Cl)ccc24)CCCC3)c1C | 1.85 | 0.776 | – | – | –
Cc1cccc(Nc2ccccc2C(=O)NCCCCCC(=O)NCCCCCCNc2c3c(nc4cc(Cl)ccc24)CCCC3)c1C | 7.39 | 2.94 | – | – | –
NCCCCCCCCCCNc1c2c(nc3cc(Cl)ccc13)CCCC2 | 2.18 | 0.932 | – | 50 | 30
Cc1cccc(Nc2ccccc2C(=O)NCCC(=O)NCCCCCCCNc2c3c(nc4cc(Cl)ccc24)CCCC3)c1C | 10 | 6.67 | – | – | –
CCCCCCCNc1c2c(nc3cc(Cl)ccc13)CCCC2 | 2.03 | 16 | Active | 3 | –
CCCCCCCCCNc1c2c(nc3cc(Cl)ccc13)CCCC2 | 16.9 | 2.27 | – | 20 | –
OCCCCCNc1c2c(nc3cc(Cl)ccc13)CCCC2 | 1520 | 72.5 | – | – | –
Cc1cccc(Nc2ccccc2C(=O)NCCCCCCCCNc2c3c(nc4cc(Cl)ccc24)CCCC3)c1C | 1.49 | 0.495 | – | – | –
Cc1cccc(Nc2ccccc2C(=O)NCCCC(=O)NCCCCCCNc2c3c(nc4cc(Cl)ccc24)CCCC3)c1C | 15.6 | 41.7 | – | – | –
NCCCCNc1c2c(nc3cc(Cl)ccc13)CCCC2 | 65.8 | 38 | – | – | –
Cc1cccc(Nc2ccccc2C(=O)NCCCC(=O)NCCCCNc2c3c(nc4cc(Cl)ccc24)CCCC3)c1C | 12.4 | 13.6 | – | – | –

Structure (SMILES) | IC50 (Acetylcholinesterase [1]) [nM] | IC50 (Acetylcholinesterase [2]) [nM] | inhibition [3] | Ratio IC50 [4] | Ratio IC50 [5]
Cc1cccc(Nc2ccccc2C(=O)NCCCCCCCNc2c3c(nc4cc(Cl)ccc24)CCCC3)c1C | 29.8 | 1380 | – | – | –
CCCCCCNc1c2c(nc3cc(Cl)ccc13)CCCC2 | 26.2 | 65.3 | – | < 5 | –
CCCCCNc1c2c(nc3cc(Cl)ccc13)CCCC2 | 43.2 | 26.3 | – | < 5 | –
Cc1cccc(Nc2ccccc2C(=O)NCCCCCCNc2c3c(nc4cc(Cl)ccc24)CCCC3)c1C | 1.02 | 7230 | – | – | –
CCCCCCCCCCNc1c2c(nc3cc(Cl)ccc13)CCCC2 | 252 | 5.17 | – | 10 | –
CCCCCCCCNc1c2c(nc3cc(Cl)ccc13)CCCC2 | 7.95 | 19.6 | – | < 5 | –
NCCCCCCCNc1c2c(nc3cc(Cl)ccc13)CCCC2 | 15.1 | 5.37 | – | – | –
Cc1cccc(Nc2ccccc2C(=O)NCCCCCCCCCNc2c3c(nc4cc(Cl)ccc24)CCCC3)c1C | 6.72 | 6.94 | – | – | –
NCCCCCCCCCNc1c2c(nc3cc(Cl)ccc13)CCCC2 | 1.22 | 0.604 | Active | 50 | 30
NCCCCCNc1c2c(nc3cc(Cl)ccc13)CCCC2 | 938 | 51 | – | – | –
NCCCCCCNc1c2c(nc3cc(Cl)ccc13)CCCC2 | 7.85 | 11.1 | Active | – | –
Cc1cccc(Nc2ccccc2C(=O)NCCC(=O)NCCCCNc2c3c(nc4cc(Cl)ccc24)CCCC3)c1C | 33 | 2470 | – | – | –
Cc1cccc(Nc2ccccc2C(=O)NCCCC(=O)NCCCCCCCNc2c3c(nc4cc(Cl)ccc24)CCCC3)c1C | 6.55 | 7.91 | – | – | –
Cc1cccc(Nc2ccccc2C(=O)NCCC(=O)NCCCCCCNc2c3c(nc4cc(Cl)ccc24)CCCC3)c1C | 2.96 | 1.14 | – | – | –
NCCCCCCCCCCCCNc1c2c(nc3cc(Cl)ccc13)CCCC2 | 1.44 | 0.648 | – | 50 | 30
